Data set [1] can be described thus: Hepatotoxicity: HepG2 cell line viability. The class given is cell-based. Conditions: human, HepG2 cells; HepG2, 50 µM, 72 h incubation. Here is the method:
(§1) The tested compounds 2 and 12 were evaluated in terms of cytotoxicity against the HepG2 cell line to assess their hepatotoxic potential (Figure 9). […].
(§2) All assays were performed according to the protocols described previously.
(§3) Figure 9 The effect of cytostatic drug doxorubicin and 2 (left), 12 (right) on hepatoma HepG2 cell line viability after 72 h of incubation at 37°, 5% CO2. The statistical significance (GraphPad Prism 8.0.1) was evaluated by a one–way ANOVA, followed by Bonferroni’s Comparison Test (* p < 0.05, ** p < 0.01, and **** p < 0.0001 compared with negative control DMSO 1% in growth media.

Data set [2] deals with HepG2 cell line. The data set is described as follows: Hepatotoxicity: HepG2 cell line viability. The data set is classed as cell-based. The conditions noted are these: 72 h incubation; for cell viability (in words): HepG2, 100 µM; for effect on HepG2 cells at lower concentrations (in words): HepG2, <10 µM. The method, then: as §1, §2, §3
The nature of data set [3]: Metabolic stability in mouse liver microsomes (MLMs), UHPLC-MS. The data set is classed as in vitro ADME. Conditions: for Metabolic Pathway: metabolites M1, M2 ... in order, after incubation with MLMs; for remaining at 2 h: mouse, liver microsomes; for remaining at 2 h / % Remaining: original compound remaining after 2 h (120 min) incubation with MLMs. Here is the method:
It seems, however, that substituents at the B ring of the ligands have a more important role. […] The data correspond to our previous results, in which substituents at the B ring increased metabolic stability. Potential sites in the molecules sensitive to enzyme activity and leading to degradation were proposed using an in silico approach, also with MetaSite 6.0.1 (Figure 7).
as §2
For orientation: Microsomes from liver hold many membrane-bound enzymes, among them those of drug oxidation.

The target in data set [4] is T1, 5-HT6 receptor (Homo sapiens, UniProt P50406).
T1 construct: host or cells: cell membranes from cultured cells
The data set is described as follows: Radioligand binding assay, 5-HT6 receptor. The conditions noted are these: mean ± SD, triplicate at 7 concentrations, Cheng-Prusoff; read-out: Affinity Ki 5-HT6R. Here is the method:
(§4) The affinity of the studied compounds to 5-HT1A, 5-HT2A, 5-HT6, 5-HT7, and D2 receptors was evaluated by a radioligand assay, as reported previously (Table 1). Each compound was tested in triplicate at seven concentrations (from 0.1 nM to 100 µM). Inhibition constants (Ki) were calculated from the Cheng–Prusoff equation [23].
(§5) The cell culture, cell membranes, and radioligand binding assays were performed in accordance with standard protocols.

The target of data set [5] is T2, 5-HT1A receptor (Homo sapiens, UniProt P08908).
T2 construct: host or cells: cell membranes from cultured cells
T2 sequence (P08908 1-422): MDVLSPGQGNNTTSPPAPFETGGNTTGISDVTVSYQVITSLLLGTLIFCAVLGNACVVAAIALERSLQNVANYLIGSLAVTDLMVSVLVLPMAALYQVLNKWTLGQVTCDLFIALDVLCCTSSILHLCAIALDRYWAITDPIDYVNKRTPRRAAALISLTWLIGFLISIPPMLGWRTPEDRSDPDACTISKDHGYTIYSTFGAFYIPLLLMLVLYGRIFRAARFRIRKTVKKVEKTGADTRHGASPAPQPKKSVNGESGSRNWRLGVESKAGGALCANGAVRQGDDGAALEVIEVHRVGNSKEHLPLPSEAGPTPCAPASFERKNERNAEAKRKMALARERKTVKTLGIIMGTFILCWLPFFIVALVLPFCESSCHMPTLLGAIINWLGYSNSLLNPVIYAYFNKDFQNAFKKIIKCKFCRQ
The data set is described as follows: Radioligand binding assay, 5-HT1A receptor. The conditions noted are these: mean ± SD, triplicate at 7 concentrations, Cheng-Prusoff; read-out: Affinity Ki 5-HT1AR. Here is the method: as §4, §5

Data set [6] addresses T3, 5-HT7 receptor (Homo sapiens, UniProt P34969).
T3 construct: host or cells: cell membranes from cultured cells
Description: Radioligand binding assay, 5-HT7 receptor. The conditions noted are these: for Ki: mean ± SD, triplicate at 7 concentrations, Cheng-Prusoff, read-out: Affinity Ki 5-HT7R; for activity with respect to 5-HT7R (in words): SAR discussion of radioligand data. The method, then:
as §4, §5

Data set [7] concerns Danio rerio. The data set is described as follows: In vivo cardiotoxicity (heart rate, malformations) in zebrafish embryos. Conditions: 96 h. The method, then: (§6) The compounds were evaluated for their ecotoxicity on the Danio rerio experimental model. OECD 236 test with modifications was applied. Both compounds were found cardiotoxic within the non-toxic range, based on the heart rate measurement. For the compound 2, 5 µg/mL was found cardiotoxic (Figure 10) and for 12, 7.5 µg/mL (Figure 11). The results were confirmed by malformations observation. […] Moreover, scoliosis (S) and tail autophagy (TA) were also noted.
To determine the toxicity of the compounds, the fish embryo toxicity (FET) test was performed on zebrafish (Danio rerio) according to OECD Test Guideline 236. The collected embryos were transferred to a Petri dish with E3 medium (5 mM NaCl, 0.33 mM MgCl2, 0.33 mM CaCl2, 0.17 mM KCl; pH 7.2) and then placed in 6-well plates, 10 embryos per well. Stock solutions 2 and 12 were prepared in DMSO. In these experiments, the range of different concentrations of the solutions was prepared by dissolving stock solutions in the E3 medium each time directly before addition to the wells. The solutions were changed once daily, and the embryos were maintained in the incubator at 28.5 °C. At the end of the exposure period (96 hpf–hours postfertilization), acute toxicity was determined based on a positive outcome in any of the four visual indicators of lethality, including the coagulation of fertilized eggs, lack of somite formation, lack of detachment of the tailbud from the yolk sac and lack of heartbeat. The value of LD50 was calculated. Heartbeats were recorded to observe cardiotoxic effects. Moreover, images of the fish from each group were taken at the final time point to monitor the occurrence of developmental malformations. For the observations, a Discovery V8 Stereo optical microscope and Zeiss hardware were used. A dose-response curve was generated using Prism 8.0.1 (GraphPad Software) by fitting a sigmoid curve model to experimental data points. The concentrations of the compounds of interest causing 50% mortality (LD50) of 96 hpf larvae of Danio rerio were calculated.

Data set [8] deals with CYP3A4 (Homo sapiens, UniProt P08684). The data set is described as follows: CYP3A4 activity (drug-drug interaction) assay. The data set is classed as in vitro ADME. Conditions: for inhibition activity toward CYP3A4 (in words): compound at 1 µM (concentration of ketoconazole) or lower; for %CYP3A4 activity: negative control = 100%. The method, then: Potential drug–drug interactions (DDIs) are an important aspect that should be considered when designing new compounds. Isoenzyme CYP3A4 is one of the varieties of enzymes responsible for xenobiotic metabolism. We evaluated active compounds 2 and 12 in terms of affinity toward this isoenzyme (Figure 8).
as §2
Figure 8 The influence of 2 (left), 12 (right), and ketoconazole (KE) on CYP3A4 activity. Statistical significance (** p < 0.01, **** p < 0.0001) was analyzed by Graph Pad Prism 8.0.1 software using One-way ANOVA and Bonferroni’s Multiple Comparison Post Test in comparison with the negative control (100% of CYP3A4 activity). The compounds were examined in triplicate.

Data set [9] concerns Danio rerio. Description: Fish embryo toxicity (FET) test, OECD 236, mortality. Conditions: 96 hpf larvae, 96 h incubation at 28 °C. The data set is classed as in vivo. Here is the method: as §6
To determine the toxicity of the compounds, the fish embryo toxicity (FET) test was performed on zebrafish (Danio rerio) according to OECD Test Guideline 236. The collected embryos were transferred to a Petri dish with E3 medium (5 mM NaCl, 0.33 mM MgCl2, 0.33 mM CaCl2, 0.17 mM KCl; pH 7.2) and then placed in 6-well plates, 10 embryos per well. Stock solutions 2 and 12 were prepared in DMSO. […] At the end of the exposure period (96 hpf–hours postfertilization), acute toxicity was determined based on a positive outcome in any of the four visual indicators of lethality, including the coagulation of fertilized eggs, lack of somite formation, lack of detachment of the tailbud from the yolk sac and lack of heartbeat. The value of LD50 was calculated. Heartbeats were recorded to observe cardiotoxic effects. […]

Data set [10] concerns the target T4, 5-HT2A receptor (Homo sapiens, UniProt P28223).
T4 construct: host or cells: cell membranes from cultured cells
The data set is described as follows: Radioligand binding assay, 5-HT2A receptor. Conditions: mean ± SD, triplicate at 7 concentrations, Cheng-Prusoff; read-out: Affinity Ki 5-HT2AR. The method, then: as §4, §5

For data set [11], the target named is T5, D2 receptor (Homo sapiens, UniProt P14416).
T5 construct: host or cells: cell membranes from cultured cells
Description: Radioligand binding assay, D2 receptor. The conditions noted are these: mean ± SD, triplicate at 7 concentrations, Cheng-Prusoff; read-out: Affinity Ki D2R. Here is the method:
as §4, §5

The source of these data is publication PMC9656787, “Design, Synthesis and Biological Evaluation of Novel 1,3,5-Triazines: Effect of Aromatic Ring Decoration on Affinity to 5-HT7 Receptor” (International Journal of Molecular Sciences, 2022).

As a reminder, the viability is a per cent measure of how many cells are alive, often set against a control. Broadly, the amount remaining is what is left of the initial amount, in per cent. A higher amount remaining goes with less turnover. For orientation: Ki means the dissociation constant of the complex between target and ligand, obtained from inhibition or displacement. For orientation: melting point means the temperature, or range, at which the solid turns liquid.

CYP3A4, sequence (P08684 whole entry): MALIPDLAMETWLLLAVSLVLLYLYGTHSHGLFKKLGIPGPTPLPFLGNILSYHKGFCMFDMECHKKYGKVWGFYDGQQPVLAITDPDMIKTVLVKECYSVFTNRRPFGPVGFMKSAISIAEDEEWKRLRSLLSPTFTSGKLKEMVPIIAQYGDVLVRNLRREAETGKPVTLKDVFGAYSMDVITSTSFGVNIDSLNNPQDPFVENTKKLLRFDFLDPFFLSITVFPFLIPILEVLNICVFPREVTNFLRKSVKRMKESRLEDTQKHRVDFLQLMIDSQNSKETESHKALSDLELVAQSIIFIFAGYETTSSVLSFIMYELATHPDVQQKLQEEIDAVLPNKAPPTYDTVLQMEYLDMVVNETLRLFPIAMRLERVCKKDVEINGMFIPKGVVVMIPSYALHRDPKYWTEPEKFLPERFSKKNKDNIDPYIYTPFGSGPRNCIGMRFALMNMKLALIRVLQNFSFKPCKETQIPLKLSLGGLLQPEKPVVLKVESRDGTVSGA
T5 sequence (P14416 whole entry): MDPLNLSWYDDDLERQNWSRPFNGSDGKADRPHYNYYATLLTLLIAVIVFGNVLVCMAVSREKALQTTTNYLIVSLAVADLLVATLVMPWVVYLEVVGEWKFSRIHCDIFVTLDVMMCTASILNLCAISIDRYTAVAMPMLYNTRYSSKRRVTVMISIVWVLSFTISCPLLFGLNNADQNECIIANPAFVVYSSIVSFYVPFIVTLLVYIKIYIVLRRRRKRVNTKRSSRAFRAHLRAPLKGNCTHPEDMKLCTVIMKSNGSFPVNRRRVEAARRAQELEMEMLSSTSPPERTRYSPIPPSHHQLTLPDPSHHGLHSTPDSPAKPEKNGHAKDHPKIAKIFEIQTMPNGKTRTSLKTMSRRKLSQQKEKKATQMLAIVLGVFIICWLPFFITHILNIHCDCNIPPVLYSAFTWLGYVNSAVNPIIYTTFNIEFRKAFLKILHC
T1 sequence (P50406 whole entry): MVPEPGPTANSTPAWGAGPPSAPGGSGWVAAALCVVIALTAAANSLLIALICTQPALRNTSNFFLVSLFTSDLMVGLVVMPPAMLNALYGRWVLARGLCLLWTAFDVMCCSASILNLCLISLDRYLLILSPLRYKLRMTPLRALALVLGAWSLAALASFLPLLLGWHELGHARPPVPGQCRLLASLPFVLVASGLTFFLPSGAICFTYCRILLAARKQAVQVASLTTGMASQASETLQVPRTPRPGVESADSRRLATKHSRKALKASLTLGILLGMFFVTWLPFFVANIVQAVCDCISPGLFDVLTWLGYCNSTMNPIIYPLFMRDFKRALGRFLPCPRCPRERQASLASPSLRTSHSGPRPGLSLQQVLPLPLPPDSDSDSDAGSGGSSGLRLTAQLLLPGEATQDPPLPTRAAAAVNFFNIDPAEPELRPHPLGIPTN
T3 sequence (P34969 1-432 limits assumed): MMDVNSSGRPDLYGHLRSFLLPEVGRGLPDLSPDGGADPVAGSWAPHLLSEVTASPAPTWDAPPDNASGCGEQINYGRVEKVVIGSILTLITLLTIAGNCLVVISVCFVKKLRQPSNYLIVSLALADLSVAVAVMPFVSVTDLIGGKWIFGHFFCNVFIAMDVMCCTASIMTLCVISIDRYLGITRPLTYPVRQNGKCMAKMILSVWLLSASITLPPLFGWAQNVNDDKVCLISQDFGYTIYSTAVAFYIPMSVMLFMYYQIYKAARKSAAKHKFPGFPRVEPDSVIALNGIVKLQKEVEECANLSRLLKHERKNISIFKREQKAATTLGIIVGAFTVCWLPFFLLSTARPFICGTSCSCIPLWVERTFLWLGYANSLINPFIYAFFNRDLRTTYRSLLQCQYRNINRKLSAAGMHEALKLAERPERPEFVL
T4 sequence (P28223 whole entry): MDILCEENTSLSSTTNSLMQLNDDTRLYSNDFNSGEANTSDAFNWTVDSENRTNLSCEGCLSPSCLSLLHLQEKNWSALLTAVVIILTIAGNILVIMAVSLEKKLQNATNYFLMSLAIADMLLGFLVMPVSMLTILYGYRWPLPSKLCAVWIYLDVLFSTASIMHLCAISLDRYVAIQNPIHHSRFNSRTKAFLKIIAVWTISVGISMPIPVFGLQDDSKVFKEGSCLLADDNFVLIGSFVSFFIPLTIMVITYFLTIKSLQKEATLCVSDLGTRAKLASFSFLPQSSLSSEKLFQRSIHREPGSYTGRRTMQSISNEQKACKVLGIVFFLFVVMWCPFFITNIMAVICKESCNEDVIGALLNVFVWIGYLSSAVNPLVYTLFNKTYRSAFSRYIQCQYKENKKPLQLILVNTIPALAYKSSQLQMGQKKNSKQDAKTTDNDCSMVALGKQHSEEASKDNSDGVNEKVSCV

Consider `Cl.Nc1nc(NCCc2ccccc2)nc(NCCc2c[nH]c3ccc(F)cc23)n1` [Compound 2, N^2-(2-(5-Fluoro-1H-Indol-3-yl)ethyl)-N^4-Phenethyl-1,3,5-Triazine-2,4,6-Triamine Hydrochloride], for which, in [1], the viability at 72 h, 50 µM was determined as 35%. For the same molecule, in data set [2], the “cell viability (in words)” value is “practically no viable” and the “effect on HepG2 cells at lower concentrations (in words)” value is “proliferative activity”. Besides, in data set [3], the “Metabolic Pathway” value was “hydroxylation ketone formation double hydroxylation dehydrogenation dehydrogenation double hydroxylation hydroxylation ketone formation and hydroxylation hydroxylation”; the fraction remaining at 2 h came to 20%; the “% Remaining” value worked out at 19.79%. Further, the Ki in [4] was 505 ± 61 nM. For the same molecule, the Ki in [5] was found to be 13900 nM. Moreover, the inhibition constant (Ki) in data set [6] worked out at 8 ± 2 nM. Also, in data set [7], the “concentration at which pericardial edema (PE) was observed” value was determined as 5000 ng/mL and the “concentration found cardiotoxic (heart rate measurement)” value was found to be 5000 ng/mL. For the same molecule, in data set [8], the “inhibition activity toward CYP3A4 (in words)” value is “no or slight inhibition activity”. Also, the “%CYP3A4 activity” value in [8] (compound at 10 µM) came to 50%. Further, the “%CYP3A4 activity” value in [8] (compound at 25 µM) is below 15%. Moreover, the “LD50 (mortality)” value in data set [9] was determined as 4.869 µg/mL. For the same molecule, in data set [10], the Ki was 413 ± 67 nM.
Molecule `Cl.Nc1nc(NCCNc2cccc(F)c2)nc(NCCc2c[nH]c3ccccc23)n1` [Compound 11, N^2-(2-(1H-Indol-3-yl)ethyl)-N^4-(2-((3-Fluorophenyl)amino)ethyl)-1,3,5-Triazine-2,4,6-Triamine Hydrochloride] displayed a melting point of 74 to 79 °C. Besides, the Ki in [4] was found to be 979 ± 237 nM. Also, in data set [5], the Ki came out at 34600 nM. Moreover, the Ki in data set [11] is 13800 nM. Further, in data set [6], the “activity with respect to 5-HT7R (in words)” value is on record as “active” and the Ki turned out to be 24 ± 5 nM. Moreover, the Ki in data set [10] came to 1280 ± 168 nM.
Regarding `Cl.Nc1nc(NCCNc2ccc(F)cc2)nc(NCCc2c[nH]c3ccccc23)n1` [Compound 12, N^2-(2-(1H-Indol-3-yl)ethyl)-N^4-(2-((4-Fluorophenyl)amino)ethyl)-1,3,5-Triazine-2,4,6-Triamine Hydrochloride], the viability at 72 h, 50 µM in data set [1] worked out at 20%. In addition, in data set [2], the “cell viability (in words)” value is “practically no viable”. Besides, the “effect on HepG2 cells at lower concentrations (in words)” value in data set [2] was “proliferative activity”. For the same molecule, the “Metabolic Pathway” value in data set [3] was “decomposition hydroxylation dehydrogenation dehydrogenation double hydroxylation hydroxylation dehydrogenation”. The molecule further registered a share remaining at 2 h in data set [3] of 29%. Further, in [3], the “% Remaining” value was 29.12%. For the same molecule, the Ki in data set [4] worked out at 1630 ± 301 nM; in [5] it was 43300 nM; in data set [11] it was 3000 ± 679 nM; in data set [6], 18 ± 3 nM; in data set [10], 3570 ± 491 nM. In [6], the “activity with respect to 5-HT7R (in words)” value is given as “active”. For the same molecule, the “concentration at which pericardial edema (PE) was observed” value in data set [7] was determined as 7500 ng/mL. The “concentration found cardiotoxic (heart rate measurement)” value in data set [7] is 7500 ng/mL. For the same molecule, the “inhibition activity toward CYP3A4 (in words)” value in data set [8] is listed as “no or slight inhibition activity”. Besides, the entries for the “%CYP3A4 activity” value in [8] (compound at 10 µM) and in [8] (compound at 25 µM) were 20% and below 15%, respectively. Further, in [9], the “LD50 (mortality)” value amounted to 16.95 µg/mL.
In turn, `Cl.Nc1nc(NCCc2c[nH]c3ccccc23)nc(Nc2cccc(Cl)c2)n1` [Compound 20, N^2-(2-(1H-Indol-3-yl)ethyl)-N^4-(3-Chlorophenyl)-1,3,5-Triazine-2,4,6-Triamine Hydrochloride] displayed a melting point of 174 to 178 °C. Besides, the Ki in data set [4] was determined as 2230 ± 528 nM. In addition, the Ki in data set [5] worked out at 14100 nM. Besides, the Ki in [11] came out at 2270 ± 153 nM. Further, in [6], the “activity with respect to 5-HT7R (in words)” value was “inactive” and the Ki was found to be 1950 ± 261 nM. Besides, the Ki in [10] came out at 2690 ± 549 nM.
